Test results: article PMC9180949, “Design, Spectroscopy, and Assessment of Cholinesterase Inhibition and Antimicrobial Activities of Novel Coumarin–Thiadiazole Hybrids” (International Journal of Molecular Sciences, 2022)

Experiments:
[1] = target: T1, BuChE; butyrylcholinesterase (EC 3.1.1.8) from equine serum (Equus caballus, UniProt P81908); assay: Ellman assay, absorbance at […] nm; type: biochemical; settings: read-out: BuChE / IC50 (μM) ± SD *
T1 construct: gene BCHE; commercial enzyme from equine serum, Sigma-Aldrich, EC 3.1.1.8

[2] = target: T2, AChE; acetylcholinesterase (E.C. 3.1.1.7) from Electrophorus electricus (Electrophorus electricus, UniProt O42275); assay: Ellman assay, absorbance at […] nm; type: biochemical; settings: read-out: AChE / IC50 (μM) ± SD *
T2 construct: commercial enzyme from Sigma-Aldrich, EC 3.1.1.7, purified from electric eel
T2 sequence (O42275 24-633): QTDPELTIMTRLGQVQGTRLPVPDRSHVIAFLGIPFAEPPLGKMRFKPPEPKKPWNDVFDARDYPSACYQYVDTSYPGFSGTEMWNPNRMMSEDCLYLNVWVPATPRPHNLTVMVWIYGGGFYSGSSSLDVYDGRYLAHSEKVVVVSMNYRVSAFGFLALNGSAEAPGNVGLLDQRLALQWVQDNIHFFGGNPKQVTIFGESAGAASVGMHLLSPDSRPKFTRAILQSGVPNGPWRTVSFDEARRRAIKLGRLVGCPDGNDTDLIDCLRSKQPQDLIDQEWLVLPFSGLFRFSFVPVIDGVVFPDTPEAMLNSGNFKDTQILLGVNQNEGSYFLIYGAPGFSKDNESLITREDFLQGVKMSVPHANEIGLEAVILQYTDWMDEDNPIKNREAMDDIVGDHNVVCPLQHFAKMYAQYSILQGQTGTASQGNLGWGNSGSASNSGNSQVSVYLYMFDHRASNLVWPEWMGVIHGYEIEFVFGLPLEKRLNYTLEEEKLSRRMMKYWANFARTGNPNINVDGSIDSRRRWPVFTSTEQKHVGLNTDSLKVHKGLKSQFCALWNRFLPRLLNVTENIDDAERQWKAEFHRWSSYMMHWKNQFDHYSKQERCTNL

T1 sequence (P81908 whole entry): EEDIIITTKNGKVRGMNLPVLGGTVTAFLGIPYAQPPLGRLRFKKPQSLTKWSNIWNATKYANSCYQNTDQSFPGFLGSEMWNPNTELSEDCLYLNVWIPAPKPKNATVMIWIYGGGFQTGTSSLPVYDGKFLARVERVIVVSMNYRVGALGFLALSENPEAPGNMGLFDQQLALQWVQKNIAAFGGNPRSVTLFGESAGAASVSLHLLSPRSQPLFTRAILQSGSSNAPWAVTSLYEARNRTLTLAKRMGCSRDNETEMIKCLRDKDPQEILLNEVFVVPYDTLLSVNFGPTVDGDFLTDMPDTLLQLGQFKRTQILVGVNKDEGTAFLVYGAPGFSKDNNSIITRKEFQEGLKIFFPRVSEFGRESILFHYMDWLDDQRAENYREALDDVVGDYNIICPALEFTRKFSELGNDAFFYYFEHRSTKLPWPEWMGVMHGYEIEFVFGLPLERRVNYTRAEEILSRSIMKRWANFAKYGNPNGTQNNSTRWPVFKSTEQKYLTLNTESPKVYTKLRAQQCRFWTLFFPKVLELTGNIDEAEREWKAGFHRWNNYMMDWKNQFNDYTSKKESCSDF

Compound	IC50 [1] [µM]	IC50 [2] [µM]
Nc1nnc(-c2cc3ccc(O)cc3oc2=O)s1 [compound 10, coumarin–thiadiazole hybrid 10]	0.38 ± 0.01	0.2 ± 0.012
Nc1nnc(-c2cc3ccccc3oc2=O)s1 [compound 8, coumarin–thiadiazole hybrid 8]	0.392 ± 0.024	0.199 ± 0.003
CCN(CC)c1ccc2cc(-c3nnc(N)s3)c(=O)oc2c1 [compound 1, coumarin–thiadiazole hybrid 1]	0.191 ± 0.024	0.184 ± 0.011
Nc1nnc(-c2cc3cc(Cl)ccc3oc2=O)s1 [compound 4, coumarin–thiadiazole hybrid 4]	0.205 ± 0.014	0.211 ± 0.01
Nc1nnc(-c2cc3cc([N+](=O)[O-])ccc3oc2=O)s1 [compound 6, coumarin–thiadiazole hybrid 6]	0.166 ± 0.022	0.198 ± 0.016
CCOc1cccc2cc(-c3nnc(N)s3)c(=O)oc12 [compound 3, coumarin–thiadiazole hybrid 3]	0.295 ± 0.024	0.152 ± 0.003
Nc1nnc(-c2cc3cccc(O)c3oc2=O)s1 [compound 11, coumarin–thiadiazole hybrid 11]	0.202 ± 0.03	0.165 ± 0.003
Nc1nnc(-c2cc3cc(Br)ccc3oc2=O)s1 [compound 5, coumarin–thiadiazole hybrid 5]	0.261 ± 0.015	0.183 ± 0.018
COc1cccc2cc(-c3nnc(N)s3)c(=O)oc12 [compound 2, coumarin–thiadiazole hybrid 2]	0.198 ± 0.039	0.213 ± 0.009
COc1cc([N+](=O)[O-])cc2cc(-c3nnc(N)s3)c(=O)oc12 [compound 7, coumarin–thiadiazole hybrid 7]	0.494 ± 0.024	0.159 ± 0.015
Nc1nnc(-c2cc3ccc(O)c(O)c3oc2=O)s1 [compound 12, coumarin–thiadiazole hybrid 12]	0.264 ± 0.017	0.187 ± 0.015
Nc1nnc(-c2cc3cc(O)ccc3oc2=O)s1 [compound 9, coumarin–thiadiazole hybrid 9]	0.235 ± 0.034	0.196 ± 0.022
